# Source: BindingDB's records for PubMed 38988222 (Hebei University of Science & Technology)
# How the values were obtained:
# [1] = target: PI3K catalytic subunit beta; assay: Inhibition of P13Kbeta (unknown origin) in the presence of ATP by scintillation proximity assay
# [2] = target: PI3K catalytic subunit gamma; assay: Inhibition of P13Kgamma (unknown origin) in the presence of ATP by scintillation proximity assay
# [3] = Inhibition of Ribosomal protein S6 kinase in human THP-1 cells by ELISA analysis
IC50 [1] [nM],IC50 [2] [nM],Structure (SMILES),also measured
400,,Cc1cc(S(=O)(=O)N[C@H]2CC[C@H](O)CC2)ccc1-c1cnc(N)c(C(=O)C2CC2)n1,
1700,,Cc1ncc(-c2cc(-c3ccc(S(=O)(=O)NCC(C)(C)O)cc3C)cnc2N)o1,
,< 50,"Clc1ccc(Cn2cc(-c3ccnc(-c4ncc(-c5ccccc5)[nH]4)c3)cn2)cc1 [US11352340, Example 1]",
,< 100,Cc1cc(S(=O)(=O)N[C@H]2CC[C@H](O)CC2)ccc1-c1cnc2c(N)c(Cl)ccn12,
,< 100,"Cc1nnc(-c2cc(-c3cc4c(c(S(C)(=O)=O)c3)C(=O)N([C@@H](C)C3CC3)C4)ccn2)[nH]1 [US11396502, Example 12]",
,,CC(NC(=O)c1c(N)nn2cccnc12)c1cc(Cl)c2c(C#N)ncn2c1N1CCS(=O)(=O)C(C)C1 (stereo unspecified),IC50 [3]: < 300 nM
